# Results published in patent EP4817688A2, “DEGRADING PKCß1 TO TREAT CANCER” (Mayo Foundation for Medical Education and Research, priority 2020, dated 2022).
# pIC50: −log10 of the molar value. Values joined by “and” are separate entries in the source; they are usually repeats but may differ in a detail not shown here. Equal values may be shown once. Read-outs that look alike come from different tables or passages of the source.
# What was measured:
# [1] = system: BT549 cells; assay: crystal violet (CV) proliferation assay, BT549; type: cell-based; conditions: Homo sapiens, BT-549, BT549 (PKCβ1^high, Rb^regative) 2000 cells
# Procedure: (§1) Cell proliferation rates were determined using crystal violet assays. One thousand cells per well were plated in 96 well tissue culture plates and treated the following day with a bifunctional compound or control for 7 days in replicates of 8. Cells were fixed with 25% glutaraldehyde for 10 minutes with shaking, washed 5 times with distilled water, stained with a 1% crystal violet solution (solubilized in 25% methanol) for 10 minutes, washed again 5 times and allowed to dry. De-staining was performed using […] sodium citrate in 50% ethanol followed by quantification using a 96 well spectrophotometer set at an absorbance of 550 nm.
# [2] = system: MDAMB436 cells; assay: crystal violet (CV) proliferation assay, MDAMB436; type: cell-based; conditions: Homo sapiens, MDA-MB-436, MDAMB436 (PKCβ1^low, Rb^negative) 2000 cells
# Procedure: as §1
# [3] = system: MDAH-2774 cells; assay: crystal violet (CV) proliferation assay, MDAH-2774; type: cell-based; conditions: Homo sapiens; MDAH-2774 (PKCβ1^high) 1000 cells/well; read-out: Approximate IC50
# Procedure: as §1
# (§2) Based on the potent anti-proliferative activity of ENDX-PROTACs TC-Pr-006, TC-Pr-007, TC-Pr -008, and TC-Pr -009 in TNBC cells, the efficacy of these compounds for inhibiting the growth of ovarian cancer cells was tested. This analysis utilized KURAMOCHI cells, which represent the high-grade serous subtype (the most malignant form that accounts for 70% of all ovarian cancers and associates with poor clinical outcome) and MDAH-2774 cells, which represent endometrioid ovarian cancer and accounts for 20% of all ovarian cancer. PKCβ1 was confirmed to be expressed in both ovarian cancer cell line models, with MDAH-2774 cells expressing higher amounts of PKCβ1 compared to KURAMOCHI cells (FIG. 5A). […]
# [4] = system: KURAMOCHI cells; assay: crystal violet (CV) proliferation assay, KURAMOCHI; type: cell-based; conditions: KURAMOSHI (PKCβ1^low) 1000 cells/well; read-out: Approximate IC50
# Procedure: as §1, §2
# [5] = pharmacokinetics in female CD1 mice, plasma by UPLC-MS/MS; type: in vivo; conditions: for Tmax: read-out: time of peak plasma concentration (converted); for half-life: read-out: terminal half-life (converted); for Concentration ENDX PROTAC 9: listed as ENDX PROTAC 9, 1 mg/kg
# Procedure: ENDX PROTAC 7 and PROTAC 9 pharmacokinetics were characterized in female CD1 mice. Blood samples were collected from mice anesthetized under isoflurane via retro-orbital eye bleed into tubes containing EDTA and immediately chilled on ice. NaF was added to the EDTA collection tubes to help stabilize the drug in whole blood for the second IV and IP studies with ENDX PROTAC 9, and for the IV and oral studies with PROTAC 7. Plasma and red blood cells were separated immediately by centrifugation in a refrigerated centrifuge at 4°C. The plasma was transferred to a separate tube and immediately frozen at -20°C.
# For IV dosing, ENDX PROTAC 9 was dissolved in 10% DMSO, 10% PEG 400, and 80% normal saline for a final concentration of 0.2 mg/mL ENDX PROTAC 9 for the 1 mg/kg IV doses. ENDX PROAC 7 was dissolved in 15% DMSO, 9.44% PEG400, and 55% normal saline for a final concentration of 0.19 mg/mL for the 1 mg/kg IV doses. Blood samples (3 mice per time-point) were collected 5 minutes, 15 minutes, 0.5 hour, 1 hour, 2 hours, 4 hours, 8 hours, and 24 hours after administration of the ENDX PROTAC. […] For oral dosing, ENDX PROTAC 9 (10 mg/kg) and ENDX PROTAC 7 (10 mg/kg) were suspended in 1 mM ascorbic acid:PEG400, 1:1 v/v for a final concentration of 1.0 mg/mL ENDX PROTAC. Blood samples (three mice per time-point) were collected 15 minutes, 0.5 hour, 1 hour, 2 hours, 4 hours, 6 hours, 8 hours, and 24 hours after administering the ENDX PROTAC. For I.P. dosing, ENDX PROTAC 9 (4 mg/kg) was prepared in 1 mM ascorbic acid:PEG400, 1:1 v/v for a final concentration of 0.4 mg/mL ENDX PROTAC 9. Blood samples (three mice per time-point) were collected 15 minutes, 0.5 hour, 1 hour, 2 hours, 4 hours, 6 hours, 8 hours, and 24 hours after administration. Plasma concentrations of ENDX PROTAC 7 and 9 were measured using UPLC-MS/MS.
# [6] = mouse, plasma, iv, 1 mg/kg, I.V. 1 mg/kg, first study without NaF
# [7] = mouse, plasma, iv, 1 mg/kg, I.V. 1 mg/kg, second study with NaF
compound,measurement,setting,value
"CCC(=C(c1ccc(O)cc1)c1ccc(OCCN(C)C(=O)COCCOCCNC(=O)Cc2ccc3c(c2)CN(C2CCC(=O)NC2=O)C3=O)cc1)c1ccccc1 (stereo not shown) [TC-Pr-009, 2-[2-(2-2-[2-(2,6-dioxopiperidin-3-yl)-1-oxo-2,3-dihydro-1H-isoindol-5-yl]acetamidoethoxy)ethoxy]-N-(2-4-[1-(4-hydroxyphenyl)-2-phenylbut-1-en-1-yl]phenoxyethyl)-N-methylacetamide]",pIC50,[1],7.17
same,pIC50,[2],7.19
same,pIC50,[3],5.00 to 6.00
same,pIC50,[4],5.00 to 6.00
same,stability in whole blood,[5]; inferred from IV studies with and without NaF,unstable in whole blood
same,Cmax,"[5]; mouse, plasma, ip, 4 mg/kg, I.P. 4 mg/kg, read-out: peak plasma concentration",135 ng/mL
same,bioavailability,"[5]; mouse, plasma, ip, I.P. 4 mg/kg, read-out: bioavailability of the I.P. dose",225%
same,Tmax,"[5]; mouse, plasma, ip, I.P. 4 mg/kg",30 min
same,clearance,[5]; [6],730 mL/min/kg
same,half-life,[5]; [6],60 min
same,Cmax,"[5]; mouse, plasma, iv, 1 mg/kg, I.V. 1 mg/kg, samples collected without added NaF, read-out: peak plasma concentration",47.2 ng/mL
same,clearance,[5]; [7],478 mL/min/kg
same,half-life,[5]; [7],39.6 min
same,Cmax,"[5]; mouse, plasma, iv, 1 mg/kg, I.V. 1 mg/kg, second study, NaF added to EDTA tubes, read-out: peak plasma concentration",70.9 ng/mL
same,concentration at 0.5 h,"[5]; mouse, plasma, iv, 1 mg/kg, plasma, IV 1 mg/kg, EDTA without NaF, 30 minutes, individual mice, read-out: Concentration ENDX PROTAC 9",1.81 ng/mL
same,concentration at 0.5 h,"[5]; mouse, plasma, iv, 1 mg/kg, plasma, IV 1 mg/kg, all data (both IV studies), 30 minutes, read-out: Concentration ENDX PROTAC 9",2.83 ng/mL
same,Tmax,"[5]; mouse, plasma, iv, I.V. 1 mg/kg, samples collected without added NaF",5 min
same,Cmax,"[5]; mouse, plasma, po, 10 mg/kg, oral 10 mg/kg, read-out: average peak plasma concentration",11.1 ng/mL
same,concentration at 0.5 h,"[5]; mouse, plasma, po, 10 mg/kg, plasma, PO 10 mg/kg, 30 minutes, individual mice, read-out: Concentration ENDX PROTAC 9",0.74 ng/mL
same,concentration at 8 h,"[5]; mouse, plasma, po, 10 mg/kg, plasma, PO 10 mg/kg, 480 minutes, individual mice, read-out: Concentration ENDX PROTAC 9",0.08 ng/mL
same,concentration at 0.25 h,"[5]; mouse, plasma, po, 10 mg/kg, plasma, TABLE 7, titled PO pk (10 mg/kg), 15 minutes, individual mice, read-out: Concentration ENDX PROTAC 9",108 ng/mL
same,concentration at 0.5 h,"[5]; mouse, plasma, po, 10 mg/kg, plasma, TABLE 7, titled PO pk (10 mg/kg), 30 minutes, individual mice, read-out: Concentration ENDX PROTAC 9",166 ng/mL
same,concentration at 1 h,"[5]; mouse, plasma, po, 10 mg/kg, plasma, TABLE 7, titled PO pk (10 mg/kg), 60 minutes, individual mice, read-out: Concentration ENDX PROTAC 9",131 ng/mL
same,bioavailability,"[5]; mouse, plasma, oral 10 mg/kg vs IV 1 mg/kg, read-out: Oral bioavailability",8.8%
same,Tmax,"[5]; mouse, plasma, oral 10 mg/kg",60 min
same,Concentration ENDX PROTAC 9,"[5]; plasma, IV 1 mg/kg, EDTA without NaF, 5 minutes, individual mice",49.449 ng/mL and 47.9659 ng/mL and 12.7855 ng/mL
same,Concentration ENDX PROTAC 9,"[5]; plasma, IV 1 mg/kg, EDTA without NaF, 15 minutes, individual mice",44.1034 ng/mL and 9.4992 ng/mL and 7.241 ng/mL
same,Concentration ENDX PROTAC 9,"[5]; plasma, IV 1 mg/kg, EDTA without NaF, 30 minutes, individual mice",1.662 ng/mL
